# Reference: patent US10662193B2, “Carbazole and carboline compounds for use in the diagnosis, treatment, alleviation or prevention of disorders associated with amyloid or amyloid-like proteins” (AC IMMUNE SA, priority 2014, dated 2020)
# Read-outs that look alike come from different tables or passages of the source.
# How the values were obtained:
# Type in all cases: binding
# [1] = test system: human brain slices from the frontal and/or temporal lobes of AD patients; test: Autoradiography with 18F-labeled compounds using human brain tissue; conditions: FIG. 14; for competition with amyloid binding compound: block with an amyloid binding compound; for competition with corresponding cold compound: blocking compound 10 μM
# Description: Autoradiography Using Human Brain Tissue
# 18 micron thick frozen human brain slices and 6 micron thick human FFPE brain slices from the frontal and/or temporal lobes of AD patients were examined via autoradiography. Brain sections were equilibrated for at least 1 h in 1×PBS solution prior to use in the experiment. Each brain section was covered with a solution of the F-18 labeled tracer (200 Bq/μl, 500 μl) in 1×PBS. For blocking experiments with the corresponding 19F-labeled compound, an excess of the blocking compound was mixed with the 18F-compound to yield an end concentration of 10 μM. The brain sections were allowed to incubate with the tracer solution at room temperature for 1 h, drained afterwards and placed in a slide holder. The slides were then washed sequentially with 1×PBS for 1 min; 70% EtOH in 1×PBS for 2 min; 30% EtOH in 1×PBS for 2 min; and 1×PBS for 1 min. The slides were allowed to air-dry before being placed on Fuji imaging plates for overnight exposure. The imaging plates were scanned and the signal was measured using Fuji software to produce an autoradiographic image of the brain section. Representative examples of autoradiography studies with ^18F-178, ^18F-189, ^18F-161, ^18F-95, ^18F-168, ^18F-146, ^18F-156, ^18F-159 are shown in FIGS. 9 to 12.
# The specificity of the signals was confirmed by blocking with an excess of the corresponding non-radioactive compounds.
# [2] = biological target: Tau enriched paired helical filaments (PHF) from human Alzheimer's disease (AD) brains (Homo sapiens, UniProt P10636); test: Assay 3: backscattering interferometry, dissociation constants (Kd)
# Source text: Assay 3 (Backscattering Interferometry):
# Determination of Dissociation Constants (Kd) of Compounds of this Invention
# Enrichment of Paired Helical Filaments (PHF's) from Human Alzheimer's Disease Brains
# For backscattering interferometry, Tau enriched paired helical filaments (PHF) from human Alzheimer's disease (AD) brains were used as a target. Due to the limited availability of tissues, to determine dissociation constants (Kd) of compounds of this invention to the target, two different batches of enriched PHF were used. These batches are identified as batch 6 and 7 and were prepared as follows.
# PHF batch number 6 was prepared starting from 25 g frontal cortical tissue from post-mortem brains of 25 Alzheimer's disease (AD) patients which were obtained from the London Tissue Bank. The mean age at death for the AD patients was 76 years (48% females). Brain samples were characterized for Braak disease stage (Braak and Braak, 1991), with most donors displaying a stage VI. The postmortem interval between death and brain dissection was between 6 and 65 h. Human brain homogenates were prepared by SB Drug Discovery (Glasgow, Scotland, UK) from the post-mortem cortical tissue of the 25 patients). Each tissue (1 g) was homogenized with a Dounce glass homogenizer in 1.5 mL 100 mM 2-(N-morpholino) ethane-sulfonic acid (MES) pH 6.8, 0.75 M NaCl, 1 mM EGTA, 0.5 mM MgSO4, 2 mM DTT containing protease inhibitors (Complete; Roche 11697498001). For each sample, two aliquots containing 0.5 g brain homogenates in 0.75 mL were shipped to AC Immune SA on dry ice and stored at −80° C. For the enrichment of PHF, 1 aliquot per donor corresponding to total 12.5 g of brain tissue were thawed on ice and then incubated at 4° C. for 20 min to depolymerize any residual microtubules. All samples were then pooled and transferred to three polycarbonate centrifuge bottles (16×76 mm; Beckman 355603).
# PHF batch number 7 was prepared starting from 32 g of parietal cortex tissue from post-mortem brain of one Alzheimer's disease (AD) patient was obtained from an external provider (Tissue Solution). The patient was a person who died for end stage AD. The brain sample was collected 5 h post-mortem and characterized for Braak disease stage (Braak and Braak, 1991) as stage VI. The method used for the PHF enrichment was modified from published procedures (Jicha et al., 1997; Rostagno and Ghiso, 2009). Around 16 g of the AD human brain was thawed on ice and homogenized with 50 ml of homogenization buffer [0.75 M NaCl in RAB buffer (100 mM 2-(N-morpholino) ethanesulfonic acid (MES), 1 mM EGTA, 0.5 mM MgSO4, 2 mM DTT, pH 6.8) supplemented with protease inhibitors (Complete; Roche 11697498001)] in a glass Dounce homogenizer. The homogenate was then incubated at 4° C. for 20 min to let depolymerize any residual microtubules, before being transferred into polycarbonate centrifuge bottles (16×76 mm; Beckman 355603). For both purifications, brain homogenates were then centrifuged at 11,000 g (12,700 RPM) in an ultracentrifuge (Beckman, XL100K) for 20 min at 4° C. using the pre-cooled 70.1 rotor (Beckman, 342184). Pellets were kept on ice. Supernatants were pooled into polycarbonate bottles and centrifuged again at 100,000 g (38,000 RPM) for 1 h at 4° C. in the 70.1 Ti rotor to isolate PHF-rich pellets, whereas soluble Tau remained in the supernatants. The pellets from the first and second centrifugations were resuspended in 120 mL of extraction buffer [10 mM Tris-HCl pH 7.4, 10% sucrose, 0.85 M NaCl, 1% protease inhibitor (Calbiochem 539131), 1 mM EGTA, 1% phosphatase inhibitor (Sigma P5726 and P0044)]. The solution was then transferred into polycarbonate centrifuge bottles (16×76 mm; Beckman 355603) and centrifuged at 15,000 g (14,800 RPM) in an ultracentrifuge (Beckman, XL100K) for 20 min at 4° C. using the 70.1 Ti rotor. […]
# [3] = test system: tau tangles/Aβ plaques on AD brain sections; test: Assay 1: direct staining of human Alzheimer's disease brain sections (fluorescence); design: key to Direct staining of tau tangles/Aβ plaques on AD brain sections at 100 μM / Direct staining of tau tangles on AD brain sections at 100 μM / Direct staining of Aβ plaques on AD brain sections at 100 μM / Direct staining of tau tangles on AD brain sections (footnote a: at 250 μM): − (No); +++ (strong); ++ (good); + (weak); conditions: 100 μM compound
# Procedure, shortened: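 Compounds (100 μM, 50% aqueous ethanol, 20 min, RT, dark) applied directly to fixed […] frozen amygdala sections of Braak stage V-VI Alzheimer's brains. After washing and 0.1% Sudan Black treatment against autofluorescence, sections were imaged microscopically for fluorescent staining.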
# [4] = test system: Aβ plaques on AD brain section; test: Assay 1: displacement of Compound B on human AD brain sections (fluorescence)
# Description: Direct Binding of Compounds of this Invention to Human Alzheimer's Disease Brain Sections and/or Displacement of RefA and Compound B Frozen sections with a thickness of […] from the amygdala of donors diagnosed with Braak stage V-VI Alzheimer's Disease (Braak, H.; Braak, E. Acta Neuropathol., 1991, 82, 239-259), were purchased from a commercial provider (Tissue Solutions) and kept at -80° C. until use. Displacement of RefA and Compound B Brain sections were mainly treated as described above. Test compounds were, however, incubated on the section at 250 μM in 50% ethanol for 20 min at room temperature, and then directly incubated with the fluorescent reference compounds RefA and Compound B, each at 1 μM in 50% ethanol for 20 min at room temperature. RefA and Compound B stainings were visualized using the 470 nm and 365 nm excitation filters, respectively. Images were acquired, and tangles and plaques quantified using the NIS-Element software. Only those compounds not directly staining tangles or plaques at the same wavelengths as RefA and Compound B were tested in the displacement assay. Structure of Compound B (prepared by a similar procedure described for […] in WO2010/011964): […]
# [5] = test system: tau tangles on AD brain section; test: Assay 1: displacement of RefA on human AD brain sections (fluorescence); conditions: for Selectivity (tau/Abeta): ratio of competition on tau tangles to competition on Aβ plaques
# Procedure, shortened: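 Braak V-VI AD amygdala frozen sections were preincubated with test compound at 250 μM in 50% ethanol for 20 min at room temperature. Fluorescent RefA at 1 μM in 50% ethanol was then added for 20 min, imaged at 470 nm excitation, and tangles were quantified.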
# [6] = PHF batch 6 (pooled frontal cortex, 25 AD patients), read-out: [Kd] on PHF batch 6
# [7] = PHF batch 7 (parietal cortex, one AD patient), read-out: [Kd] on PHF batch 7
# Chain of Tau enriched paired helical filaments (PHF) from human Alzheimer's disease (AD) brains (P10636 623-708 limits assumed): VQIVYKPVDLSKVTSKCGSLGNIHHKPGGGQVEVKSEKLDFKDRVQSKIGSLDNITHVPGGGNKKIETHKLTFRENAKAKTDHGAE
smiles,measurement,setting,value
Cn1c2ccncc2c2ccc(N3CCC(OCCOCC[18F])CC3)nc21 [^18F-152],competition with amyloid binding compound,[1],no competition
same,competition with corresponding cold compound,[1],Competition observed
Cn1c2c(c3ccc(Nc4cccc(OCCF)c4)nc31)C(=O)NCC2 [drawing 1063],Kd,[2]; [6],46 ± 9 nM
Cn1c2c(c3ccc(Nc4ccc(F)c(OCCF)c4)nc31)C(=O)NCC2 [Example 201],Direct staining of tau tangles/Aβ plaques on AD brain sections at 100 μM,"[3]; human AD brain sections, fluorescence, cell does not say tangles or plaques",−
same,Kd,[2]; [6],75 ± 12 nM
Cn1c2ccncc2c2ccc(N3CCC(OCC[18F])CC3)nc21 [^18F-156],competition with amyloid binding compound,[1],no competition
same,competition with corresponding cold compound,[1],Competition observed
Cn1c2ccncc2c2ccc(N3CCC([18F])CC3)nc21 [^18F-161],competition with amyloid binding compound,[1],no competition
same,competition with corresponding cold compound,[1],Competition observed
Cn1c2ccncc2c2ccc(Nc3cccc(F)n3)nc21 [Example 28],Direct staining of tau tangles on AD brain sections at 100 μM,[3],+ (tangles)
same,Kd,[2]; [7],400 ± 60 nM
Cn1c2ccncc2c2ccc(N3CCN(CC[18F])CC3)nc21 [^18F-168],competition with amyloid binding compound,[1],no competition
same,competition with corresponding cold compound,[1],Competition observed
CN1CCc2c(c3ccc(Nc4cccc(OCCF)c4)nc3n2C)C1=O [Example 189],Direct staining of tau tangles on AD brain sections at 100 μM,[3],++ (tangles)
same,Kd,[2]; [6],16 ± 3 nM
Cn1c2ccncc2c2ccc(Nc3cc(F)ccn3)nc21 [Example 51],Direct staining of tau tangles on AD brain sections at 100 μM,[3],+++ (tangles)
same,Kd,[2]; [7],260 ± 50 nM
Cn1c2ccncc2c2ccc(N3CC4(CC(OCCF)C4)C3)nc21 [Example 154],Direct staining of tau tangles on AD brain sections at 100 μM,[3],++ (tangles)
same,Kd,[2]; [7],270 ± 50 nM
Cn1c2ccncc2c2ccc(Nc3cc(OCCF)ccn3)nc21 [Example 63],Kd,[2]; [6],20 ± 3 nM
Cn1c2ccncc2c2ccc(N3CC4(CC(OCCOCCOCCF)C4)C3)nc21 [Example 153],Direct staining of tau tangles on AD brain sections at 100 μM,[3],++ (tangles)
same,Kd,[2]; [6],20 ± 5 nM
Cn1c2ccncc2c2ccc(N3CCN(CCF)CC3)nc21 [168 Step B],Direct staining of tau tangles on AD brain sections at 100 μM,[3],++ (tangles)
same,Competition on AD brain section Aβ plaques (1 μM Compound B vs 250 μM compound),[4],−1%
same,Kd,[2]; [7],160 ± 30 nM
Cn1c2ccncc2c2ccc(N3CC[C@H]([18F])C3)nc21 [^18F-160],competition with amyloid binding compound,[1],no competition
same,competition with corresponding cold compound,[1],Competition observed
Cn1c2ccncc2c2ccc(N3CCC[C@@H](F)C3)nc21 [Example 159],Direct staining of tau tangles on AD brain sections at 100 μM,[3],+ (tangles)
same,Kd,[2]; [7],120 ± 20 nM
Cn1c2cc[nH]c(=O)c2c2ccc(Nc3cccc(OCCF)c3)nc21 [Example 197],Direct staining of tau tangles on AD brain sections at 100 μM,[3],+ (tangles)
same,Kd,[2]; [6],100 ± 15 nM
Cn1c2ccncc2c2ccc(N3CCC(OCCF)CC3)nc21 [Example 156],Direct staining of tau tangles on AD brain sections at 100 μM,[3],+ (tangles)
same,Competition on AD brain section tau tangles (1 μM RefA vs. 250 μM compound),[5],72%
same,Selectivity (tau/Abeta),[5],>72 fold
same,Competition on AD brain section Aβ plaques (1 μM Compound B vs 250 μM compound),[4],−8%
same,Kd,[2]; [6],26 ± 7 nM
Cn1c2ccncc2c2ccc(N3CCC(F)CC3)nc21 [Example 161],Direct staining of tau tangles on AD brain sections at 100 μM,[3],+ (tangles)
same,Competition on AD brain section tau tangles (1 μM RefA vs. 250 μM compound),[5],85%
same,Selectivity (tau/Abeta),[5],~6-fold
same,Competition on AD brain section Aβ plaques (1 μM Compound B vs 250 μM compound),[4],14%
same,Kd,[2]; [6],18 ± 3 nM
Cn1c2ccncc2c2ccc(N3[C@@H]4CC[C@H]3C[C@H](F)C4)nc21 [Example 147],Direct staining of tau tangles on AD brain sections at 100 μM,[3],++ (tangles)
same,Kd,[2]; [7],170 ± 40 nM
Cn1c2ccncc2c2ccc(Nc3ccnc(F)c3)nc21 [Example 23],Kd,[2]; [6],38 ± 6 nM
same,Kd,[2]; [7],11 ± 2 nM
Cn1c2ccncc2c2ccc(N3CC4(CC(F)C4)C3)nc21 [Example 146],Direct staining of tau tangles on AD brain sections at 100 μM,[3],++ (tangles)
same,Competition on AD brain section Aβ plaques (1 μM Compound B vs 250 μM compound),[4],0%
same,Kd,[2]; [7],40 ± 10 nM
